The results in this text go back to US12285399B2, “Composition comprising bornyl acetate or pharmaceutically acceptable salt thereof as active ingredient for prevention or treatment of stress-related disorder” (UNIVERSITY-INDUSTRY COOPERATION GROUP OF KYUNG HEE …, priority 2019, dated 2025).

One test concerns iNOS mRNA. Put plainly: RT-PCR of iNOS mRNA in brain (hippocampus and amygdala) of CRS model. Type of test: in vivo, C57BL/6NTac mice. The note with it: CRS+BA group, 100 mg/kg oral. How it is done:
(§1) In order to confirm the antidepressant efficacy of bornyl acetate on the animal model of stress depression, an animal model of depression induced by chronic restrained stress (CRS) was prepared. Specifically, the animal model, 8-week-old male C57BL/6NTac mice after birth (Narabiotechnology, Korea; weight 22-24 g) had been stabilized for 1 week. A 50 ml conical tube (SPL Life sciences, Pocheon, Korea) was punched to make a hole, thereby making a restraint frame. The mice were put in the frame and restrained for 2 hours every day for 14 days. After restraint, the mice were allowed to freely ingest water and food in the home cage.
In order to confirm the inhibitory effect of bornyl acetate on the expression of inflammatory mediators in an animal model of depression induced by chronic restrained stress, mRNA expression was confirmed using reverse transcription-polymerase chain reaction (RT-PCR). Bornyl acetate (100 mg/kg) was orally administered 1 hour before inducing the restrained stress every day. […]
Western blot and RT-PCR analysis were performed in the brain (hippocampus and amygdala) of an animal model of chronic restrained stress (CRS)-induced stress depression to exam and quantify the activation level of inflammatory mediators, thereby verifying the modulating effect of bornyl acetate on the inflammatory response in the brain. […]

The test system of a further test is Iba-1. Put plainly: Immunohistochemical staining for Iba-1 (microglia activation) in brain of CRS model. The format is in vivo, C57BL/6NTac mice. The note with it: hippocampus and amygdala, CRS+BA group, 100 mg/kg oral. As to the method: as §1, with “cage. Bornyl acetate (100 mg/kg) was administered orally 1 hour before induction of restraint stress every day. 14 days later, the mice were anesthetized, and 4% paraformaldehyde was perfused into the heart. Then, the mice were fixed, and the brain was excised. The excised brain was immersed in 4% paraformaldehyde and fixed at 4° C. for one more day. It was then changed to 30% sucrose, and the brain was stored at 4° C. for 3 days or more to prevent freeze damage. The brain was cut into a thickness of 30 μm using a cryocut microtome to prepare the frozen sections. […]” for “cage.”

As for `CC(=O)OC1CC2CCC1(C)C2(C)C` (stereo not drawn) [BA, bornyl acetate], the “mRNA expression of iNOS (CRS-induced increase)” value in the test on iNOS mRNA (amygdala) and with iNOS mRNA (hippocampus) was “significantly inhibited” throughout. In addition, the “activation degree of microglia immunostained by Iba-1” value in the test on Iba-1 is on record as “consistent”.
